Active and inactive are the calls of the source. No cut-off for these calls is given here.
Key:
MCF7 [1] = test: Growth inhibition of human MCF7 cells assessed as cell viability at 4 uM after 24 hrs by MTT assay; type: functional, cell-based
[2] = Growth inhibition of human OVCAR5 cells after 48 hrs by SRB assay; type: functional; details: OVCAR-5, 48 h
SN12C = test: Growth inhibition of human SN12C cells after 48 hrs by SRB assay; type: functional
[3] = Growth inhibition of human OVCAR4 cells after 48 hrs by SRB assay; type: functional; details: OVCAR-4, 48 h
NCI-H226 = test: Growth inhibition of human NCI-H226 cells after 48 hrs by SRB assay; type: functional; details: NCI-H226, 48 h
M14 = test: Growth inhibition of human M14 cells after 48 hrs by SRB assay; type: functional; details: M14, 48 h
CAKI-1 = test: Growth inhibition of human Caki1 cells after 48 hrs by SRB assay; type: functional; details: CAKI-1, 48 h
[4] = Growth inhibition of human OVCAR3 cells after 48 hrs by SRB assay; type: functional; details: OVCAR-3, 48 h
NCI-H460 = test: Growth inhibition of human NCI-H460 cells after 48 hrs by SRB assay; type: functional; details: NCI-H460, 48 h
KM12 = test: Growth inhibition of human KM12 cells after 48 hrs by SRB assay; type: functional; details: KM12, 48 h
T47D = test: Growth inhibition of human T47D cells after 48 hrs by SRB assay; type: functional
SK-OV-3 = test: Growth inhibition of human SKOV3 cells after 48 hrs by SRB assay; type: functional; details: SK-OV-3, 48 h
HOP-62 = test: Growth inhibition of human HOP62 cells after 48 hrs by SRB assay; type: functional; details: HOP-62, 48 h
SK-MEL-28 = test: Growth inhibition of human SK-MEL-28 cells after 48 hrs by SRB assay; type: functional; details: SK-MEL-28, 48 h
SNB-75 = test: Growth inhibition of human SNB75 cells after 48 hrs by SRB assay; type: functional; details: SNB-75, 48 h
[5] = Growth inhibition of human LOXIMVI cells after 48 hrs by SRB assay; type: functional; details: LOX IMVI
[6] = Growth inhibition of human UACC62 cells after 48 hrs by SRB assay; type: functional; details: UACC-62, 48 h
HCT-116 = test: Growth inhibition of human HCT116 cells after 48 hrs by SRB assay; type: functional; details: HCT-116, 48 h
[7] = Growth inhibition of human Hs578T cells after 48 hrs by SRB assay; type: functional; details: Hs-578T
HL-60(TB) = test: Growth inhibition of human HL-60(TB) cells after 48 hrs by SRB assay; type: functional; details: HL-60, 48 h
SK-MEL-5 = test: Growth inhibition of human SK-MEL-5 cells after 48 hrs by SRB assay; type: functional; details: SK-MEL-5, 48 h
A549 = test: Growth inhibition of human A549 cells after 48 hrs by SRB assay; type: functional; details: A549, 48 h
MDA-MB-468 = test: Growth inhibition of human MDA-MB-468 cells after 48 hrs by SRB assay; type: functional; details: MDA-MB-468, 48 h
[8] = Growth inhibition of human OVCAR8 cells after 48 hrs by SRB assay; type: functional; details: OVCAR-8, 48 h
NCI-H522 = test: Growth inhibition of human NCI-H522 cells after 48 hrs by SRB assay; type: functional; details: NCI-H522, 48 h
[9] = Growth inhibition of human SF295 cells after 48 hrs by SRB assay; type: functional; details: SF-295, 48 h
[10] = Growth inhibition of human MOLT4 cells after 48 hrs by SRB assay; type: functional; details: MOLT-4, 48 h
SR = test: Growth inhibition of human SR cells after 48 hrs by SRB assay; type: functional
[11] = Growth inhibition of human BT549 cells after 48 hrs by SRB assay; type: functional; details: BT-549, 48 h
ACHN = test: Growth inhibition of human ACHN cells after 48 hrs by SRB assay; type: functional
A498 = test: Growth inhibition of human A498 cells after 48 hrs by SRB assay; type: functional; details: A498, 48 h
K562 = test: Growth inhibition of human K562 cells after 48 hrs by SRB assay; type: functional; details: K562, 48 h
SW-620 = test: Growth inhibition of human SW620 cells after 48 hrs by SRB assay; type: functional; details: SW-620, 48 h
HT-29 = test: Growth inhibition of human HT-29 cells after 48 hrs by SRB assay; type: functional; details: HT-29, 48 h
786-0 = test: Growth inhibition of human 786-0 cells after 48 hrs by SRB assay; type: functional; details: 786-0, 48 h
[12] = Growth inhibition of human NCI-ADR-RES cells after 48 hrs by SRB assay; type: functional
SNB-19 = test: Growth inhibition of human SNB19 cells after 48 hrs by SRB assay; type: functional; details: SNB-19, 48 h
MCF7 [13] = test: Growth inhibition of human MCF7 cells after 48 hrs by SRB assay; type: functional; details: MCF7, 48 h
SF-268 = test: Growth inhibition of human SF268 cells after 48 hrs by SRB assay; type: functional; details: SF-268, 48 h
PC-3 = test: Growth inhibition of human PC3 cells after 48 hrs by SRB assay; type: functional; details: PC-3, 48 h
NCI-H23 = test: Growth inhibition of human NCI-H23 cells after 48 hrs by SRB assay; type: functional; details: NCI-H23, 48 h
[14] = Growth inhibition of human EKVX cells after 48 hrs by SRB assay; type: functional
MDA-MB-231 = test: Growth inhibition of human MDA-MB-231 cells after 48 hrs by SRB assay; type: functional; details: MDA-MB-231, 48 h
COLO 205 = test: Growth inhibition of human COLO205 cells after 48 hrs by SRB assay; type: functional; details: COLO 205, 48 h
IGROV-1 = test: Growth inhibition of human IGROV1 cells after 48 hrs by SRB assay; type: functional; details: IGROV-1, 48 h
[15] = Growth inhibition of human UO31 cells after 48 hrs by SRB assay; type: functional; details: UO-31, 48 h
U-251 = test: Growth inhibition of human U251 cells after 48 hrs by SRB assay; type: functional; details: U-251, 48 h
MDA-MB-435 = test: Growth inhibition of human MDA-MB-435 cells after 48 hrs by SRB assay; type: functional; details: MDA-MB-435, 48 h
RPMI-8226 = test: Growth inhibition of human RPMI8226 cells after 48 hrs by SRB assay; type: functional; details: RPMI-8226, 48 h
[16] = Growth inhibition of human UACC257 cells after 48 hrs by SRB assay; type: functional; details: UACC-257, 48 h
CCRF-CEM = test: Growth inhibition of human CCRF-CEM cells after 48 hrs by SRB assay; type: functional
TK-10 = test: Growth inhibition of human TK10 cells after 48 hrs by SRB assay; type: functional; details: TK-10, 48 h
SK-MEL-2 = test: Growth inhibition of human SK-MEL-2 cells after 48 hrs by SRB assay; type: functional; details: SK-MEL-2, 48 h
[17] = Growth inhibition of human HCC2998 cells after 48 hrs by SRB assay; type: functional; details: HCC 2998, 48 h
NCI-H322M = test: Growth inhibition of human NCI-H322M cells after 48 hrs by SRB assay; type: functional
[18] = Growth inhibition of human SF539 cells after 48 hrs by SRB assay; type: functional; details: SF-539, 48 h
Malme-3M = test: Growth inhibition of human MALME-3M cells after 48 hrs by SRB assay; type: functional
DU-145 = test: Growth inhibition of human DU145 cells after 48 hrs by SRB assay; type: functional; details: DU-145, 48 h
[19] = Growth inhibition of human HCT15 cells after 48 hrs by SRB assay; type: functional; details: HCT-15, 48 h
MCF7 [20] = test: Cell cycle arrest in human MCF7 cells assessed as accumulation at G2/M phase at 4 uM after 24 hrs by propidium iodide staining-based flow cytometry (reference value: 15.79%); type: functional
[21] = Growth inhibition of human HOP92 cells after 48 hrs by SRB assay; type: functional; details: HOP-92, 48 h
MCF7 [22] = test: Cell cycle arrest in human MCF7 cells assessed as accumulation at G0/G1 phase at 4 uM after 24 hrs by propidium iodide staining-based flow cytometry (reference value: 64.04%); type: functional
MCF7 [23] = test: Cell cycle arrest in human MCF7 cells assessed as accumulation at S phase at 4 uM after 24 hrs by propidium iodide staining-based flow cytometry (reference value: 20.17%); type: functional

## COc1ccc(/C=C/C(=O)c2cc(OC)c(OC)c(OC)c2)cc1O
MCF7 [1]
  inhibition: Active

## COc1ccc(-c2nc3ccccn3c2/C=C/C(=O)c2cc(OC)c(OC)c(OC)c2)cc1OC
[2]
  GI50: 7380 nM
SN12C
  GI50: 4100 nM
[3]
  GI50: 2430 nM
NCI-H226
  GI50: 6100 nM
M14
  GI50: 4480 nM
CAKI-1
  GI50: 1390 nM
[4]
  GI50: 2470 nM
NCI-H460
  GI50: 2990 nM
KM12
  GI50: 2520 nM
T47D
  GI50: 3010 nM
SK-OV-3
  GI50: 4920 nM
HOP-62
  GI50: 4420 nM
SK-MEL-28
  GI50: 3300 nM
SNB-75
  GI50: 3920 nM
[5]
  GI50: 2260 nM
[6]
  GI50: 4860 nM
HCT-116
  GI50: 2620 nM
[7]
  GI50: 1850 nM
HL-60(TB)
  GI50: 2530 nM
SK-MEL-5
  GI50: 1500 nM
A549
  GI50: 3860 nM
MDA-MB-468
  GI50: 2280 nM
[8]
  GI50: 2830 nM
NCI-H522
  GI50: 2740 nM
[9]
  GI50: 1850 nM
[10]
  GI50: 2180 nM
SR
  GI50: 1900 nM
[11]
  GI50: 890 nM
ACHN
  GI50: 3220 nM
A498
  GI50: 2930 nM
K562
  GI50: 2990 nM
SW-620
  GI50: 2780 nM
HT-29
  GI50: 3200 nM
786-0
  GI50: 3740 nM
[12]
  GI50: 2180 nM
SNB-19
  GI50: 4910 nM
MCF7 [13]
  GI50: 2760 nM
SF-268
  GI50: 3580 nM
PC-3
  GI50: 3710 nM
NCI-H23
  GI50: 3780 nM
[14]
  GI50: 1710 nM
MDA-MB-231
  GI50: 3280 nM
COLO 205
  GI50: 3920 nM
IGROV-1
  GI50: 3030 nM
[15]
  GI50: 550 nM
U-251
  GI50: 2910 nM
MDA-MB-435
  GI50: 1780 nM
RPMI-8226
  GI50: 390 nM
[16]
  GI50: 3240 nM
CCRF-CEM
  GI50: 1540 nM
TK-10
  GI50: 3280 nM
SK-MEL-2
  GI50: 2370 nM
[17]
  GI50: 3800 nM
NCI-H322M
  GI50: 2080 nM
[18]
  GI50: 2710 nM
Malme-3M
  GI50: 2360 nM
DU-145
  GI50: 2630 nM
[19]
  GI50: 3730 nM

## COc1cc(C(=O)/C=C/c2c(-c3cccs3)nc3ccccn23)cc(OC)c1OC
[2]
  GI50: 2640 nM
SN12C
  GI50: 2440 nM
[3]
  GI50: 3130 nM
NCI-H226
  GI50: 2040 nM
M14
  GI50: 2080 nM
CAKI-1
  GI50: 2310 nM
[4]
  GI50: 2440 nM
NCI-H460
  GI50: 1420 nM
KM12
  GI50: 1320 nM
T47D
  GI50: 1720 nM
SK-OV-3
  GI50: 3010 nM
HOP-62
  GI50: 2880 nM
SNB-75
  GI50: 2680 nM
[5]
  GI50: 1870 nM
[6]
  GI50: 1610 nM
HCT-116
  GI50: 1630 nM
MCF7 [20]
  Activity: 1.11%
HL-60(TB)
  GI50: 2010 nM
MCF7 [1]
  inhibition: Active
SK-MEL-5
  GI50: 1330 nM
A549
  GI50: 2040 nM
MDA-MB-468
  GI50: 1720 nM
[8]
  GI50: 1680 nM
[21]
  GI50: 280 nM
NCI-H522
  GI50: 1100 nM
[9]
  GI50: 2240 nM
[10]
  GI50: 1770 nM
SR
  GI50: 1230 nM
[11]
  GI50: 1860 nM
ACHN
  GI50: 2090 nM
A498
  GI50: 980 nM
K562
  GI50: 1510 nM
HT-29
  GI50: 2090 nM
786-0
  GI50: 2310 nM
[12]
  GI50: 1890 nM
SNB-19
  GI50: 2100 nM
MCF7 [13]
  GI50: 1120 nM
SF-268
  GI50: 2370 nM
PC-3
  GI50: 2630 nM
NCI-H23
  GI50: 2200 nM
[14]
  GI50: 3120 nM
MDA-MB-231
  GI50: 3080 nM
COLO 205
  GI50: 1770 nM
IGROV-1
  GI50: 1890 nM
[15]
  GI50: 1070 nM
U-251
  GI50: 1660 nM
MDA-MB-435
  GI50: 2490 nM
MCF7 [22]
  Activity: 92.41%
RPMI-8226
  GI50: 1340 nM
MCF7 [23]
  Activity: 6.48%
[16]
  GI50: 1880 nM
CCRF-CEM
  GI50: 1660 nM
TK-10
  GI50: 3780 nM
SK-MEL-2
  GI50: 2270 nM
[17]
  GI50: 1960 nM
NCI-H322M
  GI50: 3020 nM
[18]
  GI50: 1870 nM
Malme-3M
  GI50: 3650 nM
DU-145
  GI50: 1900 nM
[19]
  GI50: 1600 nM
